Results reported in PubChem BioAssay (NCI).
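48-hour exposure; five concentrations; linearly interpolated endpoints. Here, GI50 denotes the concentration required for 50% inhibition of growth. The concentration for full growth arrest is given as TGI.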

Tests used:
Test in all cases: NCI anticancer screen, dose series, 48 h
[1] = tested on: 786-0 renal
[2] = tested on: A498 renal
[3] = tested on: A549 NSCLC
[4] = tested on: ACHN renal
[5] = tested on: BT-549 breast
[6] = tested on: CAKI-1 renal
[7] = tested on: CCRF-CEM leukemia
[8] = tested on: COLO 205 colon
[9] = tested on: DU-145 prostate
[10] = tested on: HCC-2998 colon
[11] = tested on: HCT-116 colon
[12] = tested on: HCT-15 colon
[13] = tested on: HL-60(TB) leukemia
[14] = tested on: HOP-62 NSCLC
[15] = tested on: HOP-92 NSCLC
[16] = tested on: HS 578T breast
[17] = tested on: HT29 colon
[18] = tested on: IGROV1 ovarian
[19] = tested on: K-562 leukemia
[20] = tested on: KM12 colon
[21] = tested on: LOX IMVI melanoma
[22] = tested on: M14 melanoma
[23] = tested on: MALME-3M melanoma
[24] = tested on: MCF7 breast
[25] = tested on: MDA-MB-231 breast
[26] = tested on: MDA-MB-435
[27] = tested on: MOLT-4 leukemia
[28] = tested on: NCI-H226 lung
[29] = tested on: NCI-H23 lung
[30] = tested on: NCI-H460 lung
[31] = tested on: NCI-H522 lung
[32] = tested on: NCI/ADR-RES ovarian
[33] = tested on: OVCAR-3 ovarian
[34] = tested on: OVCAR-4 ovarian
[35] = tested on: OVCAR-5 ovarian
[36] = tested on: OVCAR-8 ovarian
[37] = tested on: PC-3 prostate
[38] = tested on: RPMI-8226 leukemia
[39] = tested on: RXF 393 renal
[40] = tested on: SF-268 CNS
[41] = tested on: SF-295 CNS
[42] = tested on: SF-539 CNS
[43] = tested on: SK-MEL-2 melanoma
[44] = tested on: SK-MEL-28 melanoma
[45] = tested on: SK-MEL-5 melanoma
[46] = tested on: SK-OV-3 ovarian
[47] = tested on: SN12C renal
[48] = tested on: SNB-19 CNS
[49] = tested on: SNB-75 CNS
[50] = tested on: SR leukemia
[51] = tested on: SW-620 colon
[52] = tested on: T-47D breast
[53] = tested on: TK-10 renal
[54] = tested on: U251 CNS
[55] = tested on: UACC-257 melanoma
[56] = tested on: UACC-62 melanoma
[57] = tested on: UO-31 renal
[58] = tested on: EKVX NSCLC

## CCN(Cc1ccccc1Cl)c1ccc(CO)c(Cl)c1
[1]
  GI50: 12.8 µM
  TGI: 26.1 µM
[2]
  GI50: < 0.0219 µM
  TGI: 0.0672 µM
[3]
  GI50: 3.06 µM
  TGI: 18.7 µM
[4]
  GI50: 13.7 µM
  TGI: 27.3 µM
[5]
  GI50: 15.8 µM
  TGI: 29.9 µM
[6]
  GI50: 5.82 µM
  TGI: 21 µM
[7]
  GI50: 16.6 µM
  TGI: 38.3 µM
[8]
  GI50: 5.72 µM
  TGI: 16.3 µM
[9]
  GI50: 14 µM
  TGI: 27.8 µM
[10]
  GI50: 11.9 µM
  TGI: 25.4 µM
[11]
  GI50: 0.131 µM
  TGI: 11.8 µM
[12]
  GI50: 10.2 µM
  TGI: 24 µM
[13]
  GI50: 13.9 µM
  TGI: 33.8 µM
[14]
  GI50: 2.46 µM
  TGI: 16.1 µM
[15]
  GI50: 0.932 µM
  TGI: 8.25 µM
[16]
  GI50: 16 µM
  TGI: 38.7 µM
[17]
  GI50: 5.94 µM
  TGI: 20 µM
[18]
  GI50: < 0.0418 µM
  TGI: 0.138 µM
[19]
  GI50: 1.63 µM
  TGI: 14.6 µM
[20]
  GI50: 13.4 µM
  TGI: 28.7 µM
[21]
  GI50: 16 µM
  TGI: 30.5 µM
[22]
  GI50: 15.3 µM
  TGI: 31.7 µM
[23]
  GI50: 13.6 µM
  TGI: 28.1 µM
[24]
  GI50: 0.442 µM
  TGI: 12.1 µM
[25]
  GI50: 13.1 µM
  TGI: 26.2 µM
[26]
  GI50: 9.19 µM
  TGI: 23.9 µM
[27]
  GI50: 15.8 µM
  TGI: 38.1 µM
[28]
  GI50: 0.0295 µM
  TGI: 0.122 µM
[29]
  GI50: 7.44 µM
  TGI: 22.6 µM
[30]
  GI50: 0.296 µM
  TGI: 11.1 µM
[31]
  GI50: 11.5 µM
  TGI: 25.4 µM
[32]
  GI50: 12.2 µM
  TGI: 26.5 µM
[33]
  GI50: 0.774 µM
  TGI: 4.32 µM
[34]
  GI50: 0.368 µM
  TGI: 9.36 µM
[35]
  GI50: 0.206 µM
  TGI: 0.789 µM
[36]
  GI50: 12.8 µM
  TGI: 27.1 µM
[37]
  GI50: 12.5 µM
  TGI: 25.8 µM
[38]
  GI50: 1.91 µM
  TGI: 19 µM
[39]
  GI50: 3.75 µM
  TGI: 20 µM
[40]
  GI50: 15.5 µM
  TGI: 30 µM
[41]
  GI50: 0.775 µM
  TGI: 7.45 µM
[42]
  GI50: 15 µM
  TGI: 29 µM
[43]
  GI50: 2.39 µM
  TGI: 16.1 µM
[44]
  GI50: 11.8 µM
  TGI: 24.7 µM
[45]
  GI50: 4.11 µM
  TGI: 17.1 µM
[46]
  GI50: 8.82 µM
  TGI: 21.2 µM
[47]
  GI50: 11.5 µM
  TGI: 24 µM
[48]
  GI50: 13.2 µM
  TGI: 26.3 µM
[49]
  GI50: 7.13 µM
  TGI: 21.8 µM
[50]
  GI50: 17.3 µM
  TGI: 45.1 µM
[51]
  GI50: 1.61 µM
  TGI: 16.8 µM
[52]
  GI50: 0.06 µM
  TGI: 0.522 µM
[53]
  GI50: < 0.0334 µM
  TGI: 0.257 µM
[54]
  GI50: 0.943 µM
  TGI: 15 µM
[55]
  GI50: 0.094 µM
  TGI: 0.461 µM
[56]
  GI50: 0.152 µM
  TGI: 1.63 µM
[57]
  GI50: 9.15 µM
  TGI: 24.9 µM

## CCCCCCC/C=C/[C@H]1O[C@]2(O)C(=O)C=C3C[C@@H](O[C@@H]4O[C@H](CO)[C@@H](O)C(O)[C@@H]4O)C[C@@H]3[C@H]2C=C1C (stereo partly specified)
[1]
  GI50: 2.35 µM
  TGI: 7.08 µM
[2]
  GI50: 4.41 µM
  TGI: 9.13 µM
[3]
  GI50: 5.98 µM
  TGI: 23.4 µM
[4]
  GI50: 1.13 µM
  TGI: 4.28 µM
[5]
  GI50: 1.18 µM
  TGI: 5.53 µM
[7]
  GI50: 1.04 µM
  TGI: 4.9 µM
[8]
  GI50: 5.56 µM
  TGI: 11.8 µM
[9]
  GI50: 3.52 µM
  TGI: 7.44 µM
[58]
  GI50: 4.82 µM
  TGI: 11 µM
[10]
  GI50: 4.93 µM
  TGI: 9.82 µM
[11]
  GI50: 0.95 µM
  TGI: 3.64 µM
[12]
  GI50: 1.04 µM
  TGI: 4.59 µM
[13]
  GI50: 0.812 µM
  TGI: 4.05 µM
[15]
  GI50: 3.3 µM
  TGI: 11.3 µM
[16]
  GI50: 5.5 µM
  TGI: 28.3 µM
[17]
  GI50: 4.13 µM
  TGI: 10 µM
[18]
  GI50: 2.77 µM
  TGI: 15.2 µM
[19]
  GI50: 1.04 µM
  TGI: 3.55 µM
[20]
  GI50: 3.71 µM
  TGI: 8.65 µM
[21]
  GI50: 0.677 µM
  TGI: 1.61 µM
[22]
  GI50: 1.58 µM
  TGI: 6.35 µM
[23]
  GI50: 4.8 µM
  TGI: 10.3 µM
[24]
  GI50: 1.05 µM
  TGI: 7.88 µM
[25]
  GI50: 1.2 µM
  TGI: 5.53 µM
[26]
  GI50: 1.21 µM
  TGI: 5.69 µM
[27]
  GI50: 0.853 µM
  TGI: 2.51 µM
[28]
  GI50: 4.52 µM
  TGI: 13.7 µM
[29]
  GI50: 4.96 µM
  TGI: 13 µM
[30]
  GI50: 6.61 µM
  TGI: 24.3 µM
[31]
  GI50: 0.664 µM
  TGI: 1.81 µM
[32]
  GI50: 1.26 µM
  TGI: 14 µM
[33]
  GI50: 1.5 µM
  TGI: 5.09 µM
[34]
  GI50: 2.75 µM
  TGI: 7.83 µM
[35]
  GI50: 4.74 µM
  TGI: 10.8 µM
[36]
  GI50: 1.01 µM
  TGI: 3.92 µM
[37]
  GI50: 1.56 µM
  TGI: 11.7 µM
[38]
  GI50: 0.711 µM
  TGI: 1.98 µM
[39]
  GI50: 0.82 µM
  TGI: 2.62 µM
[40]
  GI50: 4.47 µM
  TGI: 10.3 µM
[41]
  GI50: 3.87 µM
  TGI: 8.79 µM
[42]
  GI50: 1.32 µM
  TGI: 5.12 µM
[43]
  GI50: 3.46 µM
  TGI: 9.34 µM
[44]
  GI50: 3.97 µM
  TGI: 8.62 µM
[45]
  GI50: 4.31 µM
  TGI: 8.53 µM
[46]
  GI50: 5.95 µM
  TGI: 16.4 µM
[47]
  GI50: 2.8 µM
  TGI: 10.7 µM
[48]
  GI50: 3.52 µM
  TGI: 8.04 µM
[49]
  GI50: 1.24 µM
  TGI: 5.93 µM
[50]
  GI50: 0.717 µM
  TGI: 2.85 µM
[51]
  GI50: 1.14 µM
  TGI: 5.49 µM
[52]
  GI50: 0.919 µM
  TGI: 5.34 µM
[53]
  GI50: 5.51 µM
  TGI: 11 µM
[54]
  GI50: 1.1 µM
  TGI: 4.49 µM
[55]
  GI50: 2.98 µM
  TGI: 7.59 µM
[56]
  GI50: 1.79 µM
  TGI: 6.96 µM
[57]
  GI50: 0.666 µM
  TGI: 2.36 µM
